Source: PubChem BioAssay (NCI)
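Exposure lasted 48 hours, with cells grown in 96-well plates and compounds tested at five concentrations. TGI: total growth inhibition.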

Legend:
Assay in all cases: NCI anticancer screen, dose series, 48 h
HCT-15 colon = system: HCT-15 colon
K-562 leukemia = system: K-562 leukemia
SNB-75 CNS = system: SNB-75 CNS
SK-MEL-2 melanoma = system: SK-MEL-2 melanoma
SR leukemia = system: SR leukemia
BT-549 breast = system: BT-549 breast
T-47D breast = system: T-47D breast
HS 578T breast = system: HS 578T breast
SK-MEL-5 melanoma = system: SK-MEL-5 melanoma
RXF 393 renal = system: RXF 393 renal
NCI-H522 lung = system: NCI-H522 lung
KM12 colon = system: KM12 colon
HCC-2998 colon = system: HCC-2998 colon
SNB-19 CNS = system: SNB-19 CNS
UACC-62 melanoma = system: UACC-62 melanoma
A549 NSCLC = system: A549 NSCLC
CAKI-1 renal = system: CAKI-1 renal
EKVX NSCLC = system: EKVX NSCLC
SF-539 CNS = system: SF-539 CNS

Row | SMILES | TGI (HCT-15 colon) [µM] | TGI (K-562 leukemia) [µM] | TGI (SNB-75 CNS) [µM] | TGI (SK-MEL-2 melanoma) [µM] | TGI (SR leukemia) [µM] | TGI (BT-549 breast) [µM] | TGI (T-47D breast) [µM] | TGI (HS 578T breast) [µM] | TGI (SK-MEL-5 melanoma) [µM] | TGI (RXF 393 renal) [µM] | TGI (NCI-H522 lung) [µM] | TGI (KM12 colon) [µM] | TGI (HCC-2998 colon) [µM] | TGI (SNB-19 CNS) [µM] | TGI (UACC-62 melanoma) [µM] | TGI (A549 NSCLC) [µM] | TGI (CAKI-1 renal) [µM] | TGI (EKVX NSCLC) [µM] | TGI (SF-539 CNS) [µM]
1 | N#Cc1sc2c(c1O)c(=O)n(-c1ccccc1)c(=S)n2-c1ccccc1 | > 100 | > 100 | > 100 | > 100 | > 100 | > 100 | > 100 | > 100 | > 100 | > 100 | > 100 | > 100 | > 100 | > 100 | > 100 | > 100 |  |  | 
2 | CC(=O)c1cc(C)n2c1CS[C@@H]2c1ccccc1 | > 100 | > 100 | > 100 | > 100 | > 100 | > 100 | > 100 | > 100 | > 100 | 91.6 | > 100 | > 100 |  | > 100 |  | > 100 | > 100 | > 100 | 
3 | FC1=C2CCCCCC2SC1(F)F (stereo not given) | > 100 | 47.8 | > 100 | > 100 | 53.6 | > 100 | > 100 | > 100 | > 100 | 33.2 | 29.2 | > 100 | > 100 | > 100 | > 100 | > 100 | > 100 | > 100 | 
4 | COc1cc2c(cc1OC)C(=O)N(NC1=NCCN1)C2=O | > 100 | > 100 |  | > 100 | > 100 | > 100 | > 100 | > 100 | > 100 | > 100 | > 100 | > 100 | > 100 | > 100 | > 100 | > 100 | > 100 | > 100 | > 100
5 | COc1ccccc1CNC(=O)[C@H](Cc1ccc(O)cn1)NC(C)=O | > 100 | > 100 |  | > 100 | > 100 | > 100 | > 100 | > 100 | > 100 | > 100 | > 100 | > 100 | > 100 | > 100 | > 100 | > 100 | > 100 | > 100 | > 100
6 | C[C@]12CC[C@H](O)CC1=CC[C@@H]1C2CC[C@]2(C)Nc3c(cnn3-c3ccc(F)cc3)CC12 (stereo not given in full) | > 100 | > 100 | 16.5 |  | > 100 | 38.9 | > 100 | 22.2 | > 100 | 7.7 | > 100 | > 100 | > 100 | > 100 | > 100 | > 100 | > 100 | > 100 | 4.44
7 | COc1ccc(NC2CC(C)N(C(=O)c3ccccc3)O2)cc1 (stereo not given) | > 10 | > 10 | > 10 | > 10 | > 10 | > 10 | > 10 | > 10 | > 10 | > 10 | > 10 |  | > 10 | > 10 |  | > 10 | > 10 | > 10 | > 10
8 | C/C(=N\Nc1nc2ccccc2s1)c1cc(C)ncn1 | 13 |  | 15.1 | 23 | 9.82 | > 46.3 | > 100 | 12.7 | 13 | 20 | 5.04 | 14.2 | 14.6 | 61.5 | > 32.8 | > 45.2 | 6.63 | 17.1 | 35
9 | CNCCC=C1c2ccccc2CCc2ccccc21 | 32.3 | 30.5 | 21.6 | 29.2 | 32.7 | 29.1 | 23.5 | 51.1 | 25.5 | 22.6 | 29.2 | 29.6 |  | 31.6 | 28.3 | 32.1 | 27.7 | 29.2 | 44.1
10 | O=C(NNC(=O)c1ccccc1O)c1ccc(O)cc1 | > 100 | > 100 | > 100 | 94.7 | > 100 | > 100 | > 100 | > 100 | > 100 | > 100 | 56.7 | > 100 |  | > 100 | > 100 | > 100 | > 100 | > 100 | > 100
